Structures can show the parent of a compound that is named as a salt. Where two headings read alike, the source gives them in different places.
Experiments:
[1] = target: T1, PI3K β (p110β/p85α) (Homo sapiens, UniProt P42338); experiment: PI 3-Kinase (human) HTRF assay, PI3K β; format: biochemical
T1 construct: purchased Upstate / Millipore Corporation

[2] = system: T47D; experiment: T47D proliferation; format: cell-based; details: Homo sapiens; T47D cell line
[3] = target: T2, PI3K α (p110α/p85α) (Homo sapiens, UniProt P42336); experiment: PI 3-Kinase (human) HTRF assay, PI3K α; format: biochemical
T2 construct: purchased Upstate / Millipore Corporation
Description: Briefly, the assay is a time resolved FRET assay that indirectly measures PIP3 product formed by the activity of a PI3-K. The kinase reaction is performed in a microtiter plate (e.g., a 384 well microtiter plate). The total reaction volume is approximately 20 ul per well. In the first step, each well receives 2 ul of test compound in 20% dimethylsulphoxide resulting in a 2% DMSO final concentration. […] The plate is sealed and incubated for 15 minutes at room temperature. […] The plate is sealed and incubated for 1 hour at room temperature. The reaction is stopped by adding 5 ul of Stop Solution per well and then 5 ul of Detection Mix is added per well. The plate is sealed, incubated for 1 hour at room temperature, and then read on an appropriate plate reader. Data is analyzed and IC50s are generated using GraphPad Prism 5.

[4] = target: T3, PI3K δ (Homo sapiens, UniProt O00329); experiment: PI 3-Kinase (human) HTRF assay, PI3K δ; format: biochemical; details: read-out: PI3K δ IC50
T3 construct: purchased Upstate / Millipore Corporation

[5] = target: T4, mTOR (Homo sapiens, UniProt P42345); experiment: mTOR kinase inhibition assay (radiometric or LanthaScreen TR-FRET); format: biochemical; details: read-out: mTORC IC50
T4 construct: purchased Invitrogen
Description: The cross-activity or lack thereof of one or more compounds of the present invention against mTor can be measured according to any procedures known in the art or methods disclosed below.
The compounds described herein can be tested against recombinant mTOR (Invitrogen) in an assay containing 50 mM HEPES, pH 7.5, 1 mM EGTA, 10 mM MgCl2, 2.5 mM, 0.01% Tween, 10 μM ATP (2.5 μCi of μ-32P-ATP), and 3 μg/mL BSA. Rat recombinant PHAS-1/4EBP1 (Calbiochem; 2 mg/mL) is used as a substrate. Reactions are terminated by spotting onto nitrocellulose, which is washed with 1M NaCl/1% phosphoric acid (approximately 6 times, 5-10 minutes each). Sheets are dried and the transferred radioactivity quantitated by phosphorimaging.
For instance, one can use Invitrogen's LanthaScreen™ Kinase assay to test the inhibitors of mTOR disclosed herein. This assay is a time resolved FRET platform that measures the phosphorylation of GFP labeled 4EBP1 by mTOR kinase. The kinase reaction is performed in a white 384 well microtiter plate. The total reaction volume is 20 ul per well and the reaction buffer composition is 50 mM HEPES pH7.5, 0.01% Polysorbate 20, 1 mM EGTA, 10 mM MnCl2, and 2 mM DTT. In the first step, each well receives 2 ul of test compound in 20% dimethylsulphoxide resulting in a 2% DMSO final concentration. […] The plate is sealed and incubated for 1 hour at room temperature. […] The plate is sealed, incubated for 1 hour at room temperature, and then read on a plate reader set up for LanthaScreen™ TR-FRET. Data is analyzed and IC50s are generated using GraphPad Prism 5.

[6] = target: T5, PI3K γ (p110γ) (Homo sapiens, UniProt P48736); experiment: PI 3-Kinase (human) HTRF assay, PI3K γ; format: biochemical
T5 construct: purchased Upstate / Millipore Corporation

[7] = clinical use of the marketed drug; cited from earlier work

T2 sequence (P42336 whole entry): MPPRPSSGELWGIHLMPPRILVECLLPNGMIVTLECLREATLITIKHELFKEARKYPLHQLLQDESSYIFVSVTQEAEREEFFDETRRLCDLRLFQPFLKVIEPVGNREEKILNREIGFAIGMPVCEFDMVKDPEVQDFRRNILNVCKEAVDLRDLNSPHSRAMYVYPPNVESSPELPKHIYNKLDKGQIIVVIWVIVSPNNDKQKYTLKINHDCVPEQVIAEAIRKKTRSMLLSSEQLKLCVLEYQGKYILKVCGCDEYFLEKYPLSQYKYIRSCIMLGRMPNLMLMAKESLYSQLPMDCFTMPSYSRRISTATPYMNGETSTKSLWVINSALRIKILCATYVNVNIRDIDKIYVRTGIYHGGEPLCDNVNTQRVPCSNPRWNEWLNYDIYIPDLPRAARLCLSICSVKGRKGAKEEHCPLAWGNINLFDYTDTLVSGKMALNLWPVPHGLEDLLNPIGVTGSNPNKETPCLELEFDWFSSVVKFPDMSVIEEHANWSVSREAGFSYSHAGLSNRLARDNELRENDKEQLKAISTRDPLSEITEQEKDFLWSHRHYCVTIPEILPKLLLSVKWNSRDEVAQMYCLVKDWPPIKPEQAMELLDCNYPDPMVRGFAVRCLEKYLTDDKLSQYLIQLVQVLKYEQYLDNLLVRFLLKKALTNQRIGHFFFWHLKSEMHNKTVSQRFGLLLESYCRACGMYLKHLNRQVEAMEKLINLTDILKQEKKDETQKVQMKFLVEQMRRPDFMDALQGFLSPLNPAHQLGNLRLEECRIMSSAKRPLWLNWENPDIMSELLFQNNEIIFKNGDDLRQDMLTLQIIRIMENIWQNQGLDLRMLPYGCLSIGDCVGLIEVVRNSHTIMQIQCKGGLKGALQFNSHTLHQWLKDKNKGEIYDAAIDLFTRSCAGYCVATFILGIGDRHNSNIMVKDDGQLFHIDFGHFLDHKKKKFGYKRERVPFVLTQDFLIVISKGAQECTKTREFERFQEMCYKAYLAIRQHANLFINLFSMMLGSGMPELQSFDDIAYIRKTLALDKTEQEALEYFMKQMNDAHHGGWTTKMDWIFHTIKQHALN
T2 sequence (P27986 whole entry partner): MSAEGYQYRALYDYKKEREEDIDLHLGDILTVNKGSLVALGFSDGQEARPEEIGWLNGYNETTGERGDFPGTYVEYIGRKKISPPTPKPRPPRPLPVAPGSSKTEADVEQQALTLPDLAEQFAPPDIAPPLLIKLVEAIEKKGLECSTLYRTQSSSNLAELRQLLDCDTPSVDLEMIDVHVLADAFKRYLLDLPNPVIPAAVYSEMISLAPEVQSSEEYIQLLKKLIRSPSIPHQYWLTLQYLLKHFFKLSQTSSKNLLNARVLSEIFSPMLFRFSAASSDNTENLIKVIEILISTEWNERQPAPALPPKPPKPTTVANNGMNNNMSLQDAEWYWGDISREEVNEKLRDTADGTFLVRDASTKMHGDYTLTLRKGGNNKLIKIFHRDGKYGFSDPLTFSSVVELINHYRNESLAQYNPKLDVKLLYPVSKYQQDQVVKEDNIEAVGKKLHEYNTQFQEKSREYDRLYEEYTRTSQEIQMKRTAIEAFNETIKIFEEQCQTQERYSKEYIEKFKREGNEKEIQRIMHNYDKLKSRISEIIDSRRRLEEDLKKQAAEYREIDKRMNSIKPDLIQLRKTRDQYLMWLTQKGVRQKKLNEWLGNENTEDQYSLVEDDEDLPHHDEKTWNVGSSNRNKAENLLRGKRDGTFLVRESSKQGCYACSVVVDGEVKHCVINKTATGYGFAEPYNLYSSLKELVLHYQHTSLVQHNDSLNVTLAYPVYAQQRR
T4 sequence (P42345 1360-2549 limits assumed): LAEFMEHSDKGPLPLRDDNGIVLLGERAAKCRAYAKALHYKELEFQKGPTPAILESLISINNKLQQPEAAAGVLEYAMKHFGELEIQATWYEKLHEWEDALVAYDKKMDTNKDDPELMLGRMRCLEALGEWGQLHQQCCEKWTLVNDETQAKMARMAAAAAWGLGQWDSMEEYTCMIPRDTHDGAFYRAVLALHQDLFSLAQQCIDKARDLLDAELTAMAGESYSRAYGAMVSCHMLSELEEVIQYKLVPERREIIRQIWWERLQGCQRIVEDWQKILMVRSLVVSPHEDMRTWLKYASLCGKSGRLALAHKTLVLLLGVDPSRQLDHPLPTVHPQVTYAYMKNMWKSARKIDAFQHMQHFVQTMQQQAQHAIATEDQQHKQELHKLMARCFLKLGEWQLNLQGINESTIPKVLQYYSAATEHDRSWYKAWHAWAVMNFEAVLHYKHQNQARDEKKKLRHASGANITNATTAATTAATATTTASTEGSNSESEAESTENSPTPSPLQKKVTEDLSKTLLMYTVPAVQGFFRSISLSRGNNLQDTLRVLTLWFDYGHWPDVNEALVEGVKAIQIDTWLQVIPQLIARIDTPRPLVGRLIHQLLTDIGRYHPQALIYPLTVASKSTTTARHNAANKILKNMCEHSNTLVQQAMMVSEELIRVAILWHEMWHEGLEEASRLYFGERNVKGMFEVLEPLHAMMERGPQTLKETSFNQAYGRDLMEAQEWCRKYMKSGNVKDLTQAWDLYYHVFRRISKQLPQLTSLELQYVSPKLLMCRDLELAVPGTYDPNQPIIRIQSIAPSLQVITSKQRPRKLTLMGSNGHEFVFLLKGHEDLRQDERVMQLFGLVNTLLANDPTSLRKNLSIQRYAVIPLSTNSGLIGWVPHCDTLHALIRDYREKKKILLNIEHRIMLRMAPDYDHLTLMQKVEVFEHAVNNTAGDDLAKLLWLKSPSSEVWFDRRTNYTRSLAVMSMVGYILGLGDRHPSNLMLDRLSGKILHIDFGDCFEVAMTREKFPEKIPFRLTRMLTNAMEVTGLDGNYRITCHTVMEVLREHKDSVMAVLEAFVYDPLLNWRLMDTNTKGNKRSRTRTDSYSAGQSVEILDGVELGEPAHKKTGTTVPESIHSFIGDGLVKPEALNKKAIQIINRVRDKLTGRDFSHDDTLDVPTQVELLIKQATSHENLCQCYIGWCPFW
T3 sequence (O00329 whole entry): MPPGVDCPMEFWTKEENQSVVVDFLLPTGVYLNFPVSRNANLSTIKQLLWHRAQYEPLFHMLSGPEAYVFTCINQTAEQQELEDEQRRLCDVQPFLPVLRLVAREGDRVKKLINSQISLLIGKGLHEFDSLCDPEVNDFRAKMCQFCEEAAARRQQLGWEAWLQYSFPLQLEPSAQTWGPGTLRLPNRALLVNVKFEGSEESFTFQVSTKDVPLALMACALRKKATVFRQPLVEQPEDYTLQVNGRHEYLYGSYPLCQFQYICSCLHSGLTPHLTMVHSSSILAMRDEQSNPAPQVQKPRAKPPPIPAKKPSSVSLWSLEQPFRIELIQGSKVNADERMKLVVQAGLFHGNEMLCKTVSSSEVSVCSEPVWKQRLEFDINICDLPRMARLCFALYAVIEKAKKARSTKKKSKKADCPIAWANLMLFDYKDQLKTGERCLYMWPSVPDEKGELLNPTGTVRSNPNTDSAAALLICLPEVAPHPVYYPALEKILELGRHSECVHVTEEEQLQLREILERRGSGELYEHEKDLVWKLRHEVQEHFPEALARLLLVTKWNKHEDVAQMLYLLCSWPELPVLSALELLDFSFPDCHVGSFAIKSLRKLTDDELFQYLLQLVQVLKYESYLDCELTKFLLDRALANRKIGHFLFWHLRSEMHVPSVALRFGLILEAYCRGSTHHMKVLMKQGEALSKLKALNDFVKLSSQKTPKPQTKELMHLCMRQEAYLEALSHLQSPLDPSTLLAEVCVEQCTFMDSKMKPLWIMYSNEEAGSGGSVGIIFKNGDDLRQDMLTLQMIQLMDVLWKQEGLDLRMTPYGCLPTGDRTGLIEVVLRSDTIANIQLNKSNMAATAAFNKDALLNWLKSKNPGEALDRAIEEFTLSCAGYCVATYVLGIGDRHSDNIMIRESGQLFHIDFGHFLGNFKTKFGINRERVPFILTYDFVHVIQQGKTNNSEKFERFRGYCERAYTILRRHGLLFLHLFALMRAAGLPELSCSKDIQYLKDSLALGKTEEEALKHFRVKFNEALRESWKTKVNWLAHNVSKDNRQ
T3 sequence (P27986 whole entry partner): as the sequence (P27986 whole entry partner) above

| SMILES | IC50 ([1]; read-out: PI3K β IC50) | IC50 [2] | IC50 ([3]; read-out: PI3K α IC50) | IC50 [4] | IC50 [5] | IC50 ([6]; read-out: PI3K γ IC50) | IC50 ([1]; PI3K β IC50 (nM)) | IC50 [3] | IC50 ([6]; PI3K γ IC50 (nM)) | dose limiting or most common side effect [7] |
| --- | --- | --- | --- | --- | --- | --- | --- | --- | --- | --- |
| Nc1noc2cc(-c3ccc4nccc(-c5ccncc5)c4c3)ccc12 [Compound 16] | < 10000 nM | < 1 µM | < 0.1 µM | < 10 µM | – | – | – | – | – | – |
| CN1CCC(Nc2ncnc3ccc(-c4ccc5oc(N)nc5c4)cc23)CC1 [Compound 35] | – | < 10 µM | < 0.1 µM | < 0.1 µM | < 10 µM | < 100 nM | – | – | – | – |
| CN1CCC(n2cnc3ccc(-c4ccc5oc(N)nc5c4)cc3c2=O)CC1 [Compound 36] | – | < 10 µM | < 0.1 µM | < 10 µM | < 10 µM | > 10000 nM | – | – | – | – |
| Cn1cc(-c2cnc3ccc(-c4ccc5oc(N)nc5c4)cn23)cn1 [Compound 41] | – | < 10 µM | < 0.1 µM | < 1 µM | < 10 µM | – | – | – | – | – |
| CN1CCN(c2ccc(-c3cnc4ccc(-c5ccc6oc(N)nc6c5)cn34)cn2)CC1 [Compound 42] | – | < 10 µM | < 0.1 µM | < 1 µM | > 10 µM | < 1000 nM | – | – | – | – |
| Nc1nc2cc(-c3ccc4ncc(OC5CCOCC5)nc4c3)ccc2o1 [Compound 49] | – | < 10 µM | < 0.1 µM | < 10 µM | < 10 µM | < 1000 nM | – | – | – | – |
| Nc1nc2cc(-c3ccc4ncc(-c5ccc6nc(N)oc6c5)n4c3)ccc2o1 [Compound 50] | – | < 10 µM | < 0.1 µM | < 10 µM | > 10 µM | < 100 nM | – | – | – | – |
| Nc1nc2cc(-c3ccc4ncc(C(=O)N5CCOCC5)n4c3)ccc2o1 [Compound 54] | < 10000 nM | < 10 µM | – | < 10 µM | < 10 µM | – | – | – | – | – |
| Cc1nc2ccc(-c3ccc4oc(N)nc4c3)nn2c1-c1ccncc1 [Compound 56] | < 1000 nM | < 10 µM | < 0.1 µM | > 10 µM | < 1 µM | < 100 nM | – | – | – | – |
| CN1CC(C(=O)N2CCC(Nc3ncnc4ccc(-c5ccc6oc(N)nc6c5)cc34)CC2)C1 [Compound 138] | < 1000 nM | > 10 µM | < 0.1 µM | < 0.1 µM | – | < 1000 nM | – | – | – | – |
| CC1CN(c2cnc3ccc(-c4ccc5oc(N)nc5c4)cc3n2)CCN1 (centres unmarked) [Compound 149] | < 100 nM | > 10 µM | < 0.1 µM | < 10 µM | – | – | – | – | – | – |
| CN1CCC(N(C)c2cnc3ccc(-c4ccc5oc(N)nc5c4)cc3n2)CC1 [Compound 151] | – | < 10 µM | – | < 1 µM | – | – | < 10000 nM | < 0.1 µM | < 10000 nM | – |
| Nc1nc2cc(-c3ccc4ncc(N5CCCCC5)nc4c3)ccc2o1 [Compound 175] | > 10000 nM | > 10 µM | < 0.1 µM | > 10 µM | – | < 10000 nM | – | – | – | – |
| Cc1cn(-c2cnc3ccc(-c4ccc5oc(N)nc5c4)cc3n2)cn1 [Compound 177] | > 10000 nM | > 10 µM | < 0.1 µM | > 10 µM | – | < 1000 nM | – | – | – | – |
| Nc1nc2cc(-c3ccc4ncc(C(=O)Nc5cccnc5)n4c3)ccc2o1 [Compound 190] | > 10000 nM | > 10 µM | < 0.1 µM | < 1 µM | – | < 100 nM | – | – | – | – |
| CC[C@@]1(O)C(=O)OCc2c1cc1n(c2=O)Cc2cc3c(CN(C)C)c(O)ccc3nc2-1 [topotecan HCl, (S)-10-[(dimethylamino)methyl]-4-ethyl-4,9-dihydroxy-1H-pyrano[3′,4′,6,7]-indolizino[1,2-b]quinoline-3,14-(4H,12H)-dione monohydrochloride] | – | – | – | – | – | – | – | – | – | myelosuppression, primarily neutropenia |
| CC[C@]1(O)C[C@H]2CN(CCc3c([nH]c4ccccc34)[C@@](C(=O)OC)(c3cc4c(cc3OC)N(C=O)[C@H]3[C@@](O)(C(=O)OC)[C@H](OC(C)=O)[C@]5(CC)C=CCN6CC[C@]43[C@@H]65)C2)C1 [vincristine, vincaleukoblastine, 22-oxo-, sulfate] | – | – | – | – | – | – | – | – | – | Alopecia and neurologic effects |
